# Assay results reported in patent US20230225972A1 (priority 2020, published 2023).
# System: influenza
# Set-up: species or system Mice
# Settings: mouse, in vivo
compound,measurement,value
Nc1nc2c(ncn2[C@@H]2O[C@@H]3COP(=O)(O)O[C@H]4[C@@H](O)[C@H](n5cnc6c(=O)[nH]c(N)nc65)O[C@@H]4COP(=O)(O)O[C@H]3[C@H]2O)c(=O)[nH]1 [c-di-GMP],viral replication in the nose,facilitate reduction of viral replication in the nose
